The results in this text go back to patent publication US9371296B2, “Bicyclic 1,3,4-oxadiazole derivatives as sphingosine-1-phosphate receptors' modulators” (Allergan, Inc., priority 2014, dated 2016).

T1 sequence (P21453 whole entry): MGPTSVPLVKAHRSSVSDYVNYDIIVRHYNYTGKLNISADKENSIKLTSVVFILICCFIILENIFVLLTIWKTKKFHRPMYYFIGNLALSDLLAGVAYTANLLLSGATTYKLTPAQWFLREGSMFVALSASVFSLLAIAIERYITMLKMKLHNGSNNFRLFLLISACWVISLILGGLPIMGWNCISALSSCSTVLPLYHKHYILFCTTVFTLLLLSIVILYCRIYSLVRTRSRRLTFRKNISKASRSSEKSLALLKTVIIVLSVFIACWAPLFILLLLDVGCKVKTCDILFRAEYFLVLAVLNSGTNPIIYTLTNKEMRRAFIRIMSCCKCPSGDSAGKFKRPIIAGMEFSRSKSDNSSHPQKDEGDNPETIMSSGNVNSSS

This assay concerns the target T1, human S1P1 receptor (Homo sapiens, UniProt P21453).
T1 construct: expressed in transfected cells; membranes used
The assay is described as follows: GTP γ35S binding assay for S1P1 activity. The format is biochemical. The settings on record: 5 microgram membrane protein, test compounds 0.08 to 5,000 nM, 30 min at 25° C. Here is the method:
Compounds were synthesized and tested for S1P1 activity using the GTP γ^35S binding assay. These compounds may be assessed for their ability to activate or block activation of the human S1P1 receptor in cells stably expressing the S1P1 receptor.
GTP γ^35S binding was measured in medium containing (mM) HEPES 25, pH 7.4, MgCl2 10, NaCl 100, dithiothreitol 0.5, digitonin 0.003%, 0.2 nM GTP γ^35S, and 5 microgram membrane protein in a volume of 150 microliters. Test compounds were included in the concentration range from 0.08 to 5,000 nM unless indicated otherwise. Membranes were incubated with 100 μM 5′-adenylylimmidodiphosphate for 30 min, and subsequently with 10 micromolar GDP for 10 min on ice. Drug solutions and membrane were mixed, and then reactions were initiated by adding GTP γ^35S and continued for 30 min at 25° C. Reaction mixtures were filtered over Whatman GF/B filters under vacuum, and washed three times with 3 mL of ice-cold buffer (HEPES 25, pH7.4, MgCl2 10 and NaCl 100). Filters were dried and mixed with scintillant, and counted for ^35S activity using a β-counter. Agonist-induced GTP γ^35S binding was obtained by subtracting that in the absence of agonist. Binding data were analyzed using a non-linear regression method. In case of antagonist assay, the reaction mixture contained 10 nM […] in the presence of test antagonist at concentrations ranging from 0.08 to 5000 nM.
(Binding of GTPγS marks nucleotide exchange on a G protein.)
As for `CCC/C(=C\c1nnc(-c2ccc(CNCCCP(=O)(O)O)c3ccccc23)o1)c1ccccc1` [Compound 1, (3-{[(4-{5-[(1E)-2-phenylpent-1-en-1-yl]-1,3,4-oxadiazol-2-yl}naphthalen-1-yl)methyl]amino}propyl)phosphonic acid], it took 27 nM to reach a half-maximal effect (EC50).

Consider `CCC/C(=C\c1nnc(-c2ccc(CNCCC(=O)O)c3ccccc23)o1)c1ccccc1` [Compound 2, 3-{[(4-{5-[(1E)-2-phenylpent-1-en-1-yl]-1,3,4-oxadiazol-2-yl}naphthalen-1-yl)methyl]amino}propanoic acid], for which a half-maximal effect (EC50) was put at 571 nM.

As to `CCCC/C(=C\c1nnc(-c2ccc(CNCCCP(=O)(O)O)c3ccccc23)o1)c1ccccc1` [Compound 3, (3-{[(4-{5-[(1E)-2-phenylhex-1-en-1-yl]-1,3,4-oxadiazol-2-yl}naphthalen-1-yl)methyl]amino}propyl) phosphonic acid], the midpoint of the response, the EC50, lay at 2.52 nM.

Turning to `CCCC/C(=C\c1nnc(-c2ccc(CNCCC(=O)O)c3ccccc23)o1)c1ccccc1` [Compound 4, 3-{[(4-{5-[(1E)-2-phenylhex-1-en-1-yl]-1,3,4-oxadiazol-2-yl}naphthalen-1-yl)methyl]amino}propanoic acid], the concentration giving a half-maximal response (EC50) (in general, the concentration needed to bring the measured effect to its halfway point) was determined as 85 nM.

In turn, `CCC/C(=C\c1nnc(-c2ccc(CNCCCP(=O)(O)O)c3ncccc23)o1)c1ccccc1` [Compound 5, (3-{[(5-{5-[(1E)-2-phenylpent-1-en-1-yl]-1,3,4-oxadiazol-2-yl}quinolin-8-yl)methyl]amino}propyl) phosphonic acid] gave a half-maximal effective concentration (EC50) of 0.61 nM.

Consider `CCC/C(=C\c1nnc(-c2ccc(CNCCC(=O)O)c3ncccc23)o1)c1ccccc1` [Compound 6, 3-{[(5-{5-[(1E)-2-phenylpent-1-en-1-yl]-1,3,4-oxadiazol-2-yl}quinolin-8-yl)methyl]amino}propanoic acid], for which the 50% effective concentration (EC50) was found to be 150 nM.

In turn, `CCCC/C(=C\c1nnc(-c2ccc(CNCCCP(=O)(O)O)c3ncccc23)o1)c1ccccc1` [Compound 7, (3-{[(5-{5-[(1E)-2-phenylhex-1-en-1-yl]-1,3,4-oxadiazol-2-yl}quinolin-8-yl)methyl]amino}propyl) phosphonic acid] came in with an EC50 of 0.5 nM.

Take `CCCC/C(=C\c1nnc(-c2ccc(CNCCC(=O)O)c3ncccc23)o1)c1ccccc1` [Compound 8, 3-{[(5-{5-[(1E)-2-phenylhex-1-en-1-yl]-1,3,4-oxadiazol-2-yl}quinolin-8-yl)methyl]amino}propanoic acid]: the concentration for a half-maximal effect (EC50) stood at 33 nM.

`CCCCCC(Cc1nnc(-c2ccc(CNCCCP(=O)(O)O)c3ccccc23)o1)c1ccccc1` (stereo not drawn) [Compound 9, {3-[({4-[5-(2-phenylheptyl)-1,3,4-oxadiazol-2-yl]naphthalen-1-yl}methyl)amino]propyl}phosphonic acid]: it took 14 nM to reach a half-maximal effect (EC50).

As for `CCCCCC(Cc1nnc(-c2ccc(CNCCC(=O)O)c3ccccc23)o1)c1ccccc1` (stereo not drawn) [Compound 10, 3-[({4-[5-(2-phenylheptyl)-1,3,4-oxadiazol-2-yl]naphthalen-1-yl}methyl)amino]propanoic acid], the EC50 turned out to be 320 nM.

Compound `CCCC(Cc1nnc(-c2ccc(CNCCCP(=O)(O)O)c3ncccc23)o1)c1ccccc1` (stereo not drawn) [Compound 11, {3-[({5-[5-(2-phenylpentyl)-1,3,4-oxadiazol-2-yl]quinolin-8-yl}methyl)amino]propyl}phosphonic acid] yielded an EC50 of 0.26 nM.

`CCCC(Cc1nnc(-c2ccc(CNCCC(=O)O)c3ncccc23)o1)c1ccccc1` (stereo not drawn) [Compound 12, 3-[({5-[5-(2-phenylpentyl)-1,3,4-oxadiazol-2-yl]quinolin-8-yl}methyl)amino]propanoic acid] returned an EC50 of 340 nM.

`CCC/C(=C\c1nnc(-c2ccc(CN3CC(C(=O)O)C3)c3ccccc23)o1)c1ccccc1` [Compound 13, 1-[(4-{5-[(1E)-2-phenylpent-1-en-1-yl]-1,3,4-oxadiazol-2-yl}naphthalen-1-yl)methyl]azetidine-3-carboxylic acid] yielded a concentration for a half-maximal effect (EC50) of 607 nM.

On to `CCCC/C(=C\c1nnc(-c2ccc(CN3CC(C(=O)O)C3)c3ccccc23)o1)c1ccccc1` [Compound 14, 1-[(4-{5-[(1E)-2-phenylhex-1-en-1-yl]-1,3,4-oxadiazol-2-yl}naphthalen-1-yl)methyl]azetidine-3-carboxylic acid], for which the half-maximal effective concentration (EC50) is 156 nM.

In the case of `CCCC/C(=C\c1nnc(-c2ccc(CN3CC(C(=O)O)C3)c3ncccc23)o1)c1ccccc1` [Compound 16, 1-[(5-{5-[(1E)-2-phenylhex-1-en-1-yl]-1,3,4-oxadiazol-2-yl}quinolin-8-yl)methyl]azetidine-3-carboxylic acid], the midpoint of the response, the EC50, lay at 29 nM.

Regarding `CCCCCC(Cc1nnc(-c2ccc(CN3CC(C(=O)O)C3)c3ccccc23)o1)c1ccccc1` (stereo not drawn) [Compound 17, 1-({4-[5-(2-phenylheptyl)-1,3,4-oxadiazol-2-yl]naphthalen-1-yl}methyl)azetidine-3-carboxylic acid], the midpoint of the response, the EC50, lay at 942 nM.

In turn, `CCCC(Cc1nnc(-c2ccc(CN3CC(C(=O)O)C3)c3ncccc23)o1)c1ccccc1` (stereo not drawn) [Compound 18, 1-({5-[5-(2-phenylpentyl)-1,3,4-oxadiazol-2-yl]quinolin-8-yl}methyl)azetidine-3-carboxylic acid] displayed a 50% effective concentration (EC50) of 461 nM.

With `CCCCC(Cc1nnc(-c2ccc(CNCCC(=O)O)c3ncccc23)o1)c1ccccc1` (stereo not drawn) [Compound 19, 3-[({5-[5-(2-phenylhexyl)-1,3,4-oxadiazol-2-yl]quinolin-8-yl}methyl)amino]propanoic acid], the midpoint of the response, the EC50, lay at 257 nM.

The compound `CCCCCC(Cc1nnc(-c2ccc(CNCCC(=O)O)c3ncccc23)o1)c1ccccc1` (stereo not drawn) [Compound 20, 3-[({5-[5-(2-phenylheptyl)-1,3,4-oxadiazol-2-yl]quinolin-8-yl}methyl)amino]propanoic acid] returned an EC50 of 417 nM.

`CCCCC(Cc1nnc(-c2ccc(CNCCCP(=O)(O)O)c3ncccc23)o1)c1ccccc1` (stereo not drawn) [Compound 21, {3-[({5-[5-(2-phenylhexyl)-1,3,4-oxadiazol-2-yl]quinolin-8-yl}methyl)amino]propyl}phosphonic acid] displayed a concentration for a half-maximal effect (EC50) of 1.05 nM.

For the compound `CCCCCC(Cc1nnc(-c2ccc(CNCCCP(=O)(O)O)c3ncccc23)o1)c1ccccc1` (stereo not drawn) [Compound 22, {3-[({5-[5-(2-phenylheptyl)-1,3,4-oxadiazol-2-yl]quinolin-8-yl}methyl)amino]propyl}phosphonic acid], a half-maximal effect (EC50) was put at 2.87 nM.

In turn, `CCCCC(Cc1nnc(-c2ccc(CN3CC(C(=O)O)C3)c3ncccc23)o1)c1ccccc1` (stereo not drawn) [Compound 23, 1-({5-[5-(2-phenylhexyl)-1,3,4-oxadiazol-2-yl]quinolin-8-yl}methyl)azetidine-3-carboxylic acid] had an EC50 of 376 nM.

As to `CCCCCC(Cc1nnc(-c2ccc(CN3CC(C(=O)O)C3)c3ncccc23)o1)c1ccccc1` (stereo not drawn) [Compound 24, 1-({5-[5-(2-phenylheptyl)-1,3,4-oxadiazol-2-yl]quinolin-8-yl}methyl)azetidine-3-carboxylic acid], the midpoint of the response, the EC50, lay at 1090 nM.

“(E)-1-((5-(5-(2-phenylpent-1-en-1-yI)-1,3,4-oxadiazol-2-yl)quinolin-8-yl)methyl)azetidine-3-carboxylic acid [Compound 15]”: the half-maximal effective concentration (EC50) came to 163 nM.
